How the values were obtained:
[1] = target: Carbonic anhydrase 7 (Homo sapiens) (UniProt P43166)
Description: Inhibition of human recombinant full length carbonic hydrase 7 by stopped-flow assay

[2] = target: Carbonic anhydrase 14 (Homo sapiens) (UniProt Q9ULX7)
Description: Inhibition of human recombinant full length carbonic hydrase 14 by stopped-flow assay

[3] = target: Carbonic anhydrase 3 (Homo sapiens) (UniProt P07451)
Description: Inhibition of human recombinant full length carbonic hydrase 3 by stopped-flow assay

[4] = target: Carbonic anhydrase 4 (Homo sapiens) (UniProt P22748)
Description: Inhibition of human recombinant full length carbonic hydrase 4 by stopped-flow assay

[5] = target: Carbonic anhydrase 5A, mitochondrial (Homo sapiens) (UniProt P35218)
Description: Inhibition of human recombinant full length carbonic hydrase 5A by stopped-flow assay

[6] = target: Carbonic anhydrase 9 (Homo sapiens) (UniProt Q16790)
Description: Inhibition of human catalytic domain carbonic hydrase 9 by stopped-flow assay

[7] = target: Carbonic anhydrase 12 (Homo sapiens) (UniProt O43570)
Carbonic anhydrase 12 (Homo sapiens), sequence (O43570 whole entry): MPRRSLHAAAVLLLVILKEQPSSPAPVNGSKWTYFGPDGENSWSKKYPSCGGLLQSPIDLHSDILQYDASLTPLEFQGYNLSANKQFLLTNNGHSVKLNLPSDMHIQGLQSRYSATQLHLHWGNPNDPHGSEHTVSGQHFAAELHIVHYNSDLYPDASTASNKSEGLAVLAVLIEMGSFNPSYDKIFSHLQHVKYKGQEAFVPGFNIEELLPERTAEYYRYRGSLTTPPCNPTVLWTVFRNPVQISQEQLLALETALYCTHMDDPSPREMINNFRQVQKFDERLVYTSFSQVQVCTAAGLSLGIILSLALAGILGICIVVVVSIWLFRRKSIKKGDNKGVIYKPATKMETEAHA
Description: Inhibition of human catalytic domain carbonic hydrase 12 by stopped-flow assay

[8] = target: Carbonic anhydrase 2 (Homo sapiens) (UniProt P00918)
Description: Inhibition of human recombinant full length carbonic hydrase 2 by stopped-flow assay

[9] = target: Carbonic anhydrase 13 (Mus musculus) (UniProt Q9D6N1); assay: Inhibition of mouse recombinant full length carbonic hydrase 13 by stopped-flow assay
Carbonic anhydrase 13 (Mus musculus), sequence (Q9D6N1 whole entry, looked up): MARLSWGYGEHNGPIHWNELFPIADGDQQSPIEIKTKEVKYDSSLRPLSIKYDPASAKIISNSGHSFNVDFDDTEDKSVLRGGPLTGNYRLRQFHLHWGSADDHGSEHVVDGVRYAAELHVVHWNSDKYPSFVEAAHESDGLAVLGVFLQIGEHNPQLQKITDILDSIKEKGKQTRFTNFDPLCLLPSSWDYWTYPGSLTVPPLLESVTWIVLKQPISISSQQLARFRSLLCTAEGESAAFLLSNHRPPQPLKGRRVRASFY

[10] = target: Carbonic anhydrase 6 (Homo sapiens) (UniProt P23280)
Carbonic anhydrase 6 (Homo sapiens), sequence (P23280 whole entry): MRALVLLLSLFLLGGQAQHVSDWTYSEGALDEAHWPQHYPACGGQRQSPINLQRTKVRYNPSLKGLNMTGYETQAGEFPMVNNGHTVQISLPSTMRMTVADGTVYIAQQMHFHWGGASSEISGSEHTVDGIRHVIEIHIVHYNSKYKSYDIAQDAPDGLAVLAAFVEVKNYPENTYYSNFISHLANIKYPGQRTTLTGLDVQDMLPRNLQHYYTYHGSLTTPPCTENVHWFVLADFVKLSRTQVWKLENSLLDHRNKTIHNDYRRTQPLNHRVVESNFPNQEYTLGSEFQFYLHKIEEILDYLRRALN
Description: Inhibition of human recombinant full length carbonic hydrase 6 by stopped-flow assay

[11] = target: Carbonic anhydrase 1 (Homo sapiens) (UniProt P00915)
Carbonic anhydrase 1 (Homo sapiens), sequence (P00915 2-261 limits assumed): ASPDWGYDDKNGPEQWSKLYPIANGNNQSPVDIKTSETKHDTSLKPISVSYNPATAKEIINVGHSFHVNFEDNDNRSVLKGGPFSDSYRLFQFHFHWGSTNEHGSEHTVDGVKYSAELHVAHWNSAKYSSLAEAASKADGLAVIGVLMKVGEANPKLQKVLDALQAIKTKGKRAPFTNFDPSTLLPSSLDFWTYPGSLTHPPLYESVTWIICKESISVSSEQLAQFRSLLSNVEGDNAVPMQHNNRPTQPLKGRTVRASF
Description: Inhibition of human recombinant full length carbonic hydrase 1 by stopped-flow assay

[12] = target: Carbonic anhydrase 5B, mitochondrial (Homo sapiens) (UniProt Q9Y2D0)
Carbonic anhydrase 5B, mitochondrial (Homo sapiens), sequence (Q9Y2D0 whole entry): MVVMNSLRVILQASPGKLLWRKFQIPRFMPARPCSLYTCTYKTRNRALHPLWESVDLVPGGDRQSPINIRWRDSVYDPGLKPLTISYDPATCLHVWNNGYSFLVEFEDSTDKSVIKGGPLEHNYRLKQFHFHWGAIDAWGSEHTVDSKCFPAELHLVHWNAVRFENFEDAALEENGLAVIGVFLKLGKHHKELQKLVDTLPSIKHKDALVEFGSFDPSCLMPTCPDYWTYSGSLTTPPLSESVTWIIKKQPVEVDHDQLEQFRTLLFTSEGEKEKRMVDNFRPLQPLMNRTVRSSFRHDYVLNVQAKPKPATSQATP
Description: Inhibition of human recombinant full length carbonic hydrase 5B by stopped-flow assay

Carbonic anhydrase 3 (Homo sapiens), sequence (P07451 whole entry): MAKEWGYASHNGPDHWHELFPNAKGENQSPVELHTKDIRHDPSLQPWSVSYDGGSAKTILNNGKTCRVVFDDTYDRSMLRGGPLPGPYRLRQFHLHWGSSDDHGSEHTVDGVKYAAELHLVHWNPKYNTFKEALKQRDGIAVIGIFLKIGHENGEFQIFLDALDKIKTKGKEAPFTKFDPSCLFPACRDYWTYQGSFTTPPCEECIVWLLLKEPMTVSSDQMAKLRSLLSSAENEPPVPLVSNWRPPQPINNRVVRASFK
Carbonic anhydrase 5A, mitochondrial (Homo sapiens), sequence (P35218 whole entry): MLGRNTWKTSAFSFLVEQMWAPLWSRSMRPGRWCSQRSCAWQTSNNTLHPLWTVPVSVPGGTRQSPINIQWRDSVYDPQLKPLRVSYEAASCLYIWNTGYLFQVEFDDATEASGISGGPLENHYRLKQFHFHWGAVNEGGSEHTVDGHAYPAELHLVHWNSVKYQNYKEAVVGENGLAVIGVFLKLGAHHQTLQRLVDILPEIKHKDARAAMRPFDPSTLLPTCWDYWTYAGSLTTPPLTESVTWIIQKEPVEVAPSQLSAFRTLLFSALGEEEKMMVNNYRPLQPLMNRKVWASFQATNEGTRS
Carbonic anhydrase 4 (Homo sapiens), sequence (P22748 whole entry): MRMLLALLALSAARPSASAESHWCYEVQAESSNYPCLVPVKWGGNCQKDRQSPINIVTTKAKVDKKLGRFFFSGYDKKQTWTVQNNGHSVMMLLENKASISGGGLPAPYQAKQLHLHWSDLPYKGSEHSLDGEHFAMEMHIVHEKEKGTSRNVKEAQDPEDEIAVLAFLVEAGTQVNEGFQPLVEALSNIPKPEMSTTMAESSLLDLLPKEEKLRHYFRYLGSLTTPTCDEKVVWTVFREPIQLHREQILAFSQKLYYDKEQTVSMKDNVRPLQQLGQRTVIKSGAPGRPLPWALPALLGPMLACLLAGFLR
Carbonic anhydrase 7 (Homo sapiens), sequence (P43166 whole entry): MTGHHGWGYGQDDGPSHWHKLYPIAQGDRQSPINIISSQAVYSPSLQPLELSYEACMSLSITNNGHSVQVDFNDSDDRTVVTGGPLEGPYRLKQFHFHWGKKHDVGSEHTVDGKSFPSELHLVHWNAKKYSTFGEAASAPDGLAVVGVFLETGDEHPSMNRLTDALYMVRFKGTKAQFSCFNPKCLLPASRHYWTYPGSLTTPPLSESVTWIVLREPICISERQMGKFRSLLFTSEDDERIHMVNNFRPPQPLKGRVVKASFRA
Carbonic anhydrase 14 (Homo sapiens), sequence (Q9ULX7 whole entry): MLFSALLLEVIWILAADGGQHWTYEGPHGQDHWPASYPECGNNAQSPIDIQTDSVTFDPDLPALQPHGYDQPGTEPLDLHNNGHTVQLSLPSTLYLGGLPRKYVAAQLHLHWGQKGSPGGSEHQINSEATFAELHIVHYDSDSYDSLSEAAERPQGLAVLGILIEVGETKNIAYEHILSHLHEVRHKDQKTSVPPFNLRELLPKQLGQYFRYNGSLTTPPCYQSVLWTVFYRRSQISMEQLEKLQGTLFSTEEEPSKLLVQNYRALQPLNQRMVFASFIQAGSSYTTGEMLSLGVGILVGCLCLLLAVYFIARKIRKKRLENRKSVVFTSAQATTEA

Kinact [1] [µM]	Kinact [2] [µM]	Ki [3] [µM]	Ki [4] [µM]	Ki [5] [µM]	Kinact [6] [µM]	Kinact [7] [µM]	Ki [8] [µM]	Kinact [9] [µM]	Ki [10] [µM]	Ki [11] [µM]	Ki [12] [µM]	SMILES
16	5	3.3	5.4	8.3	5.6	8.1	6.5	4.9	5.3	6.6		Oc1c(I)cc(Cl)c2cccnc12
		710		0.065				0.019	0.01			CC(=O)/N=c1/sc(S(N)(=O)=O)nn1C
163	10.6	0.71	10.7	65	9.4	70.2	33.9	84.2	82.6	38.8	98.4	Oc1cc(F)cc(F)c1
